Marks after values point to notes of the source that are not given here.
What was measured:
Parameters in all cases: species or system Sprague–Dawley rats
Conditions in all cases: rat, in vivo
[1] = OLINDA/EXM predicted clinical doses: adult female phantom, normalised τ, FBP
Description: (§1) PET studies were reconstructed using filtered-back projection (FBP) and Mediso’s iterative Tera-Tomo 3D reconstruction algorithm with the following settings: 4 iterations, 6 subsets, full detector model, normal regularization, spike filter on, voxel size 0.4 mm and 400‒600 keV energy window. PET data were corrected for randoms, scatter and attenuation. Time-activity curves for each source organ, whole-body and remainder of the body were plotted. […] Residence times (τ) were determined for each radiotracer in source organs, whole-body and remaining (any activity assigned to the whole-body but not assigned to a source organ). Each preclinical source organ’s τ was determined by calculating the area under its respective time-activity curve (activity normalised to the percentage maximum injected dose as a function of time) using the trapezoid method. […] From each individual animal, eight dosimetry models were constructed from all possible combinations of image reconstruction method (FBP or iterative), τ (non-normalised or normalised to human organ masses), and sex of phantom (male or female). Supplementary table 8. Predicted clinical absorbed organ doses and whole-body effective doses of PET radiotracers using normalised adult female source organ residence times from filtered backprojection reconstructions.

[2] = OLINDA/EXM predicted clinical doses: adult female phantom, non-normalised τ, iterative
Description: as §1, with “table 10.” for “table 8.”, “using non-normalised (preclinical)” for “using normalised”, “from iterative” for “from filtered backprojection”

[3] = OLINDA/EXM predicted clinical doses: adult male phantom, non-normalised τ, FBP
Description: as §1, with “female).” for “female). Supplementary table 8. Predicted clinical absorbed organ doses and whole-body effective doses of PET radiotracers using normalised adult female source organ residence times from filtered backprojection reconstructions.”

[4] = OLINDA/EXM predicted clinical doses: adult male phantom, non-normalised τ, iterative
Description: as §1, with “female).” for “female). Supplementary table 8. Predicted clinical absorbed organ doses and whole-body effective doses of PET radiotracers using normalised adult female source organ residence times from filtered backprojection reconstructions.”

For “NOTA-RGDfK [existing Al^18F-labelled NOTA-RGDfK peptide PET radiotracer; precursor NOTA-RGDfK (1)]”, the “Effective Dose (mSv/MBq), Average ± SD” value [1] was 2.71E-02 mSv/MBq, the “Estimated Absorbed Dose of Organ, Average: Adrenals” value [1] was 1.41E-02 mGy/MBq and the “Estimated Absorbed Dose of Organ, Average: Brain” value [1] was 4.10E-03 mGy/MBq. For the same substance, the “Estimated Absorbed Dose of Organ, Average: Breasts” value [1] was 1.02E-02 mGy/MBq, the “Estimated Absorbed Dose of Organ, Average: Gallbladder Wall” value [1] was 1.36E-02 mGy/MBq and the “Estimated Absorbed Dose of Organ, Average: Heart Wall” value [1] was 1.39E-02 mGy/MBq. For the same substance, the “Estimated Absorbed Dose of Organ, Average: Kidneys” value [1] was 1.95E-02 § mGy/MBq, the “Estimated Absorbed Dose of Organ, Average: LLI Wall” value [1] was 6.76E-02 ‡ mGy/MBq and the “Estimated Absorbed Dose of Organ, Average: Liver” value [1] was 8.65E-03 mGy/MBq. The “Estimated Absorbed Dose of Organ, Average: Lungs” value [1] was 1.10E-02 mGy/MBq, the “Estimated Absorbed Dose of Organ, Average: Muscle” value [1] was 1.29E-02 mGy/MBq and the “Estimated Absorbed Dose of Organ, Average: Osteogenic Cells” value [1] was 2.00E-02 mGy/MBq. The “Estimated Absorbed Dose of Organ, Average: Ovaries” value [1] was 2.14E-02 mGy/MBq, the “Estimated Absorbed Dose of Organ, Average: Pancreas” value [1] was 1.47E-02 mGy/MBq and the “Estimated Absorbed Dose of Organ, Average: Red Marrow” value [1] was 1.23E-02 mGy/MBq. The “Estimated Absorbed Dose of Organ, Average: Skin” value [1] was 9.76E-03 mGy/MBq, the “Estimated Absorbed Dose of Organ, Average: Small Intestine” value [1] was 1.64E-02 mGy/MBq and the “Estimated Absorbed Dose of Organ, Average: Spleen” value [1] was 1.38E-02 mGy/MBq. The “Estimated Absorbed Dose of Organ, Average: Stomach Wall” value [1] was 1.41E-02 mGy/MBq, the “Estimated Absorbed Dose of Organ, Average: Thymus” value [1] was 1.28E-02 mGy/MBq and the “Estimated Absorbed Dose of Organ, Average: Thyroid” value [1] was 1.16E-02 mGy/MBq. The “Estimated Absorbed Dose of Organ, Average: Total Body” value [1] was 1.31E-02 mGy/MBq, the “Estimated Absorbed Dose of Organ, Average: ULI Wall” value [1] was 1.62E-02 mGy/MBq and the “Estimated Absorbed Dose of Organ, Average: Urinary Bladder Wall” value [1] was 1.54E-01 † mGy/MBq. The “Estimated Absorbed Dose of Organ, Average: Uterus” value [1] was 2.28E-02 mGy/MBq, the “Effective Dose” value [2] was 8.22E-02 mSv/MBq and the “Estimated Absorbed Dose of Organ, Adrenals” value [2] was 9.77E-03 mGy/MBq. The “Estimated Absorbed Dose of Organ, Brain” value [2] was 1.87E-03 mGy/MBq, the “Estimated Absorbed Dose of Organ, Breasts” value [2] was 5.49E-03 mGy/MBq and the “Estimated Absorbed Dose of Organ, Gallbladder Wall” value [2] was 1.07E-02 mGy/MBq. For the same substance, the “Estimated Absorbed Dose of Organ, Heart Wall” value [2] was 7.79E-03 mGy/MBq, the “Estimated Absorbed Dose of Organ, Kidneys” value [2] was 4.85E-02§ mGy/MBq and the “Estimated Absorbed Dose of Organ, LLI Wall” value [2] was 1.68E-01 ‡ mGy/MBq. For the same substance, the “Estimated Absorbed Dose of Organ, Liver” value [2] was 1.06E-02 mGy/MBq, the “Estimated Absorbed Dose of Organ, Lungs” value [2] was 5.19E-03 mGy/MBq and the “Estimated Absorbed Dose of Organ, Muscle” value [2] was 1.30E-02 mGy/MBq. The “Estimated Absorbed Dose of Organ, Osteogenic Cells” value [2] was 1.30E-02 mGy/MBq, the “Estimated Absorbed Dose of Organ, Ovaries” value [2] was 4.12E-02 mGy/MBq and the “Estimated Absorbed Dose of Organ, Pancreas” value [2] was 9.72E-03 mGy/MBq. The “Estimated Absorbed Dose of Organ, Red Marrow” value [2] was 1.18E-02 mGy/MBq, the “Estimated Absorbed Dose of Organ, Skin” value [2] was 7.18E-03 mGy/MBq and the “Estimated Absorbed Dose of Organ, Small Intestine” value [2] was 2.22E-02 mGy/MBq. For the same substance, the “Estimated Absorbed Dose of Organ, Spleen” value [2] was 9.42E-03 mGy/MBq, the “Estimated Absorbed Dose of Organ, Stomach Wall” value [2] was 9.44E-03 mGy/MBq and the “Estimated Absorbed Dose of Organ, Thymus” value [2] was 6.68E-03 mGy/MBq. For the same substance, the “Estimated Absorbed Dose of Organ, Thyroid” value [2] was 5.90E-03 mGy/MBq, the “Estimated Absorbed Dose of Organ, ULI Wall” value [2] was 1.78E-02 mGy/MBq and the “Estimated Absorbed Dose of Organ, Urinary Bladder Wall” value [2] was 9.66E-01 † mGy/MBq. The “Estimated Absorbed Dose of Organ, Uterus” value [2] was 6.04E-02 mGy/MBq, the “Estimated Absorbed Dose, Total Body” value [2] was 1.33E-02 mGy/MBq and the “Effective Dose (mSv/MBq), Average” value [3] was 5.11E-02 mSv/MBq. The “Estimated Absorbed Dose of Organ, Average: Adrenals” value [3] was 1.14E-02 mGy/MBq, the “Estimated Absorbed Dose of Organ, Average: Brain” value [3] was 2.47E-03 mGy/MBq and the “Estimated Absorbed Dose of Organ, Average: Breasts” value [3] was 7.90E-03 mGy/MBq. The “Estimated Absorbed Dose of Organ, Average: Gallbladder Wall” value [3] was 1.24E-02 mGy/MBq, the “Estimated Absorbed Dose of Organ, Average: Heart Wall” value [3] was 7.37E-03 mGy/MBq and the “Estimated Absorbed Dose of Organ, Average: Kidneys” value [3] was 2.41E-02§ mGy/MBq. For the same substance, the “Estimated Absorbed Dose of Organ, Average: LLI Wall” value [3] was 1.46E-01 ‡ mGy/MBq, the “Estimated Absorbed Dose of Organ, Average: Liver” value [3] was 7.25E-03 mGy/MBq and the “Estimated Absorbed Dose of Organ, Average: Lungs” value [3] was 6.07E-03 mGy/MBq. For the same substance, the “Estimated Absorbed Dose of Organ, Average: Muscle” value [3] was 1.31E-02 mGy/MBq, the “Estimated Absorbed Dose of Organ, Average: Osteogenic Cells” value [3] was 1.64E-02 mGy/MBq and the “Estimated Absorbed Dose of Organ, Average: Pancreas” value [3] was 1.22E-02 mGy/MBq. For the same substance, the “Estimated Absorbed Dose of Organ, Average: Red Marrow” value [3] was 1.21E-02 mGy/MBq, the “Estimated Absorbed Dose of Organ, Average: Skin” value [3] was 8.75E-03 mGy/MBq and the “Estimated Absorbed Dose of Organ, Average: Small Intestine” value [3] was 1.97E-02 mGy/MBq. For the same substance, the “Estimated Absorbed Dose of Organ, Average: Spleen” value [3] was 1.15E-02 mGy/MBq, the “Estimated Absorbed Dose of Organ, Average: Stomach Wall” value [3] was 1.21E-02 mGy/MBq and the “Estimated Absorbed Dose of Organ, Average: Testes” value [3] was 1.85E-02 mGy/MBq. For the same substance, the “Estimated Absorbed Dose of Organ, Average: Thymus” value [3] was 9.71E-03 mGy/MBq, the “Estimated Absorbed Dose of Organ, Average: Thyroid” value [3] was 9.77E-03 mGy/MBq and the “Estimated Absorbed Dose of Organ, Average: Total Body” value [3] was 1.30E-02 mGy/MBq. For the same substance, the “Estimated Absorbed Dose of Organ, Average: ULI Wall” value [3] was 1.65E-02 mGy/MBq, the “Estimated Absorbed Dose of Organ, Average: Urinary Bladder Wall” value [3] was 4.35E-01 † mGy/MBq and the “Effective Dose (mSv/MBq), Average ± SD” value [4] was 6.30E-02 mSv/MBq. For the same substance, the “Estimated Absorbed Dose of Organ, Average ± SD: Adrenals” value [4] was 7.60E-03 mGy/MBq, the “Estimated Absorbed Dose of Organ, Average ± SD: Brain” value [4] was 1.47E-03 mGy/MBq and the “Estimated Absorbed Dose of Organ, Average ± SD: Breasts” value [4] was 4.25E-03 mGy/MBq. The “Estimated Absorbed Dose of Organ, Average ± SD: Gallbladder Wall” value [4] was 8.74E-03 mGy/MBq, the “Estimated Absorbed Dose of Organ, Average ± SD: Heart Wall” value [4] was 6.02E-03 mGy/MBq and the “Estimated Absorbed Dose of Organ, Average ± SD: Kidneys” value [4] was 4.41E-02 § mGy/MBq. For the same substance, the “Estimated Absorbed Dose of Organ, Average ± SD: LLI Wall” value [4] was 1.50E-01 ‡ mGy/MBq, the “Estimated Absorbed Dose of Organ, Average ± SD: Liver” value [4] was 8.14E-03 mGy/MBq and the “Estimated Absorbed Dose of Organ, Average ± SD: Lungs” value [4] was 3.96E-03 mGy/MBq. The “Estimated Absorbed Dose of Organ, Average ± SD: Muscle” value [4] was 1.06E-02 mGy/MBq, the “Estimated Absorbed Dose of Organ, Average ± SD: Osteogenic Cells” value [4] was 1.00E-02 mGy/MBq and the “Estimated Absorbed Dose of Organ, Average ± SD: Pancreas” value [4] was 7.83E-03 mGy/MBq. The “Estimated Absorbed Dose of Organ, Average ± SD: Red Marrow” value [4] was 9.28E-03 mGy/MBq, the “Estimated Absorbed Dose of Organ, Average ± SD: Skin” value [4] was 5.85E-03 mGy/MBq and the “Estimated Absorbed Dose of Organ, Average ± SD: Small Intestine” value [4] was 1.73E-02 mGy/MBq. The “Estimated Absorbed Dose of Organ, Average ± SD: Spleen” value [4] was 7.40E-03 mGy/MBq, the “Estimated Absorbed Dose of Organ, Average ± SD: Stomach Wall” value [4] was 7.65E-03 mGy/MBq and the “Estimated Absorbed Dose of Organ, Average ± SD: Testes” value [4] was 1.89E-02 mGy/MBq. The “Estimated Absorbed Dose of Organ, Average ± SD: Thymus” value [4] was 5.18E-03 mGy/MBq, the “Estimated Absorbed Dose of Organ, Average ± SD: Thyroid” value [4] was 5.01E-03 mGy/MBq and the “Estimated Absorbed Dose of Organ, Average ± SD: Total Body” value [4] was 1.06E-02 mGy/MBq. The “Estimated Absorbed Dose of Organ, Average ± SD: ULI Wall” value [4] was 1.35E-02 mGy/MBq and the “Estimated Absorbed Dose of Organ, Average ± SD: Urinary Bladder Wall” value [4] was 6.89E-01 † mGy/MBq.
